{
  "source": "patent US12433846B2",
  "about": "“Drug delivery system for treatment of cancer” (SINTEF TTO AS, priority 2019, dated 2025)",
  "key": {"[1]": {"tested_on": "PMCA-1 (peritoneal metastases from colorectal cancer)", "experiment": "In vivo treatment effect in orthotopic PMCA-1 peritoneal carcinomatosis model", "settings": "PMCA-1, 15 mg/kg"}, "[2]": {"tested_on": "PMCA-3 (pseudomyxoma peritonei)", "experiment": "In vivo treatment effect in orthotopic PMCA-3 peritoneal carcinomatosis model", "settings": "PMCA-3, 15 mg/kg"}},
  "note": "Several values for one entry are separate records, joined by “and”; a condition that tells them apart may be missing. Equal entries are not always repeated.",
  "data": [
    {"smiles": "CO[C@H]1C(=O)[C@]2(C)[C@@H](OC)C[C@H]3OC[C@@]3(OC(C)=O)[C@H]2[C@H](OC(=O)c2ccccc2)[C@]2(O)C[C@H](OC(=O)[C@H](O)[C@@H](NC(=O)OC(C)(C)C)c3ccccc3)C(C)=C1C2(C)C", "note": "[CBZ, cabazitaxel]", "values": [
      {"measurement": "mice still alive at day 90 after the injection", "setting": "[1]; IP (FIG. 4)", "value": "4 out of 6"},
      {"measurement": "mice still alive at day 90 after the injection", "setting": "[1]; IV (FIG. 4)", "value": "3 out of 6"},
      {"measurement": "tumor growth (growth index) compared to vehicle treatment", "setting": "[1]; intraperitoneal (FIG. 1)", "value": "significantly inhibited tumor growth"},
      {"measurement": "mice cured (sacrificed on day 100 with no detectable tumor)", "setting": "[1]; intraperitoneal, day 100", "value": "3/6 and 3 out of 6"},
      {"measurement": "mice still alive at day 60 after the injection", "setting": "[2]; IP (FIG. 6)", "value": "none of the mice"},
      {"measurement": "mice alive at day 70 after the injection", "setting": "[2]; IV (FIG. 6)", "value": "none of the mice"},
      {"measurement": "tumor growth (growth index) compared to vehicle treatment", "setting": "[2]; intraperitoneal (FIG. 2)", "value": "significantly reduced tumor growth"},
      {"measurement": "mice cured (sacrificed on day 100 with no detectable tumor)", "setting": "[2]; intraperitoneal, day 100", "value": "No animals were cured"}
    ]}
  ]
}
